Like-named read-outs stand apart in the source and are kept apart here.
Legend:
Bcl-2 = target: T1, Bcl-2 (Homo sapiens, UniProt P10415); assay: Fluorescence polarization (FP) competition binding assay, Bcl-2; conditions: Table 1
T1 construct: made in house
Description: This was done by using the FP based competition binding assay (see below).
The binding interactions of the test compound with Bcl-2, Bcl-XL and Bcl-w proteins were evaluated using the respective recombinant proteins. […] The assays were conducted via an optimized protocol established in the laboratory using a GENios Pro plate reader (Tecan US, NC) with all assays performed in triplicate, each assay performed twice (see Doshi, J. M.; Tian, D.; Xing, C. J. Med. Chem. 2006, 49, 7731).

Bcl-XL = target: T2, Bcl-XL (Homo sapiens, UniProt Q07817); assay: Fluorescence polarization (FP) competition binding assay, Bcl-XL
T2 construct: made in house
T2 sequence (Q07817 whole entry, species assumed): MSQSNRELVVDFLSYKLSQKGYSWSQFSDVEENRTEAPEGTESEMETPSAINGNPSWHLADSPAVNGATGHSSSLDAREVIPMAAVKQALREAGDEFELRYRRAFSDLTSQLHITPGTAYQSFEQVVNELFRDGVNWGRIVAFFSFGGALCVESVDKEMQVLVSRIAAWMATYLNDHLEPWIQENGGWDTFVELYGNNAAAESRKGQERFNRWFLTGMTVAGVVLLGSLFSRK
Source text: (§1) With the stability improved, the mechanism of action of compound 1 was studied to determine whether compound 1 would retain the same mechanism of HA 14-1 as an antagonist against anti-apoptotic Bcl-2 proteins. Table 1 summarizes the binding interaction of compound 1 with three anti-apoptotic Bcl-2 proteins by following an established fluorescence polarization competition assay (see Doshi, J. M.; Tian, D.; Xing, C. J. Med. Chem. 2006, 49, 7731-7739).
(§2) To explore whether compound 3 functioned the same as HA 14-1 in inducing cell death, compound 3 was tested for its binding interactions with recombinant Bcl-2, Bcl-XL, and Bcl-w proteins. This was done by using the FP based competition binding assay (see below).
(§3) The binding interactions of the test compound with Bcl-2, Bcl-XL and Bcl-w proteins were evaluated using the respective recombinant proteins. The preparation of these recombinant Bcl-2 proteins and fluorescently labeled Bak peptide has been detailed previously (see Doshi, J. M.; Tian, D.; Xing, C. J. Med. Chem. 2006, 49, 7731). The assays were conducted via an optimized protocol established in the laboratory using a GENios Pro plate reader (Tecan US, NC) with all assays performed in triplicate, each assay performed twice (see Doshi, J. M.; Tian, D.; Xing, C. J. Med. Chem. 2006, 49, 7731).

Bcl-w = target: T3, Bcl-w (Homo sapiens, UniProt Q92843); assay: Fluorescence polarization (FP) competition binding assay, Bcl-w
T3 construct: made in house
T3 sequence (Q92843 1-193): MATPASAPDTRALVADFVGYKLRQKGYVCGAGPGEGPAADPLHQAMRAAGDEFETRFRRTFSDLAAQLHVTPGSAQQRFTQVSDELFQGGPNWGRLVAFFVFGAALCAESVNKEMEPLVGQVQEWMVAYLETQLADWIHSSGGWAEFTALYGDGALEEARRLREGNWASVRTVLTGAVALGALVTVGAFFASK
Source text: as §1, §2, §3

Jurkat cells [1] = assay: In vitro cytotoxicity assay (GI50) with fresh and incubated samples; format: cell-based; conditions: for increase of GI50 after incubation: 24-hour incubation in cell culture media at 37° C., FIG. 1; for loss of cytotoxicity after incubation: one hour incubation, FIG. 6
Description: Compound 1 (Example 2) was first evaluated for its stability under physiological conditions. In brief, compound 1 was incubated in cell culture media at 37° C. for 24 hours and the in vitro cytotoxicity was determined. HA 14-1 was run in parallel for comparison.
The stability of compound 3 (Example 1) was evaluated using the in vitro cytotoxicity assay described below.
The in vitro cytotoxicity of the test compound was assayed by determining the GI50s (the concentration of the compound required to inhibit cell growth by 50%). In brief, Jurkat cells at a density of 10^4 cells/well were plated in a 96-well plate. A series of 3-fold dilution of the test compound with 1% DMSO in the final cell media was used for the cell treatment (cells treated with media containing 1% DMSO served as a control). An identical set of the test compounds was incubated at 37° C. for the specified time and used along with freshly prepared samples for the cell-viability assay. After 24-hour treatment, the relative cell viability in each well was determined by using CellTiter-Blue Cell Viability Assay kit (a fluorescence assay that measures the reduction of a dye (resazurin) into a fluorescent end product (resorufin) by metabolically active cells—viable cells) (Promega, CA). The GI50 of each candidate was determined by fitting the relative viability of the cells to the drug concentration by using a dose-response model in GraphPad software.

[2] = HPLC analysis of decomposition in cell culture media; format: physicochemical; conditions: 48-hour incubation in cell culture media at 37° C.
caspase-3/-7 = assay: Concentration-dependent activation of caspase-3/-7 / mode of cell death; format: cell-based; conditions: 24 hours treatment; FIG. 2
Description: Compound 1 was further analyzed for its mechanism to inhibit cell growth as HA 14-1 does. This was characterized for concentration-dependent activation of caspase-3/-7. HA 14-1 was run in parallel for comparison. […] Mechanistically, however, compound 1 induced cell death through two different pathways depending on its concentration, similar to HA 14-1. Between 50-100 μM, compound 1 induces apoptosis as characterized by caspase-3/-7 activation. On the other hand, at >100 μM, compound 1 induced non-apoptotic cell death (no activation of caspase-3/-7). The induction of cell death through apoptosis and non-apoptotic process was further supported by DNA fragmentation studies.

[3] = tested on: Jurkat cells (normal, over-expressing Bcl-2, or over-expressing Bcl-XL); assay: In vitro cytotoxicity against three Jurkat cell lines (drug resistance); format: cell-based; conditions: Jurkat normal vs Bcl-2 or Bcl-XL over-expressing; FIG. 3, FIG. 7
Description: Compound 1 was further studied for its capability to overcome drug resistance induced by the over-expression of anti-apoptotic Bcl-2 proteins. Specifically, the in vitro cytotoxicity of compound 1 against three Jurkat cells (normal, over-expressing Bcl-2, or over-expressing Bcl-XL) were evaluated.
The ability of compound 3 to overcome the drug resistance induced by the over-expression of anti-apoptotic Bcl-2 proteins by evaluating its cytotoxicity in Bcl-2 or Bcl-XL over-expressing Jurkat cells was also evaluated.
The in vitro cytotoxicity of the test compound was assayed by determining the GI50s (the concentration of the compound required to inhibit cell growth by 50%). In brief, Jurkat cells at a density of 10^4 cells/well were plated in a 96-well plate. A series of 3-fold dilution of the test compound with 1% DMSO in the final cell media was used for the cell treatment (cells treated with media containing 1% DMSO served as a control). An identical set of the test compounds was incubated at 37° C. for the specified time and used along with freshly prepared samples for the cell-viability assay. […]

Jurkat cells [4] = assay: Sensitization of Jurkat cells to doxorubicin (combination cytotoxicity); format: cell-based; conditions: for synergism with doxorubicin: combination vs each alone, FIG. 4
Description: Finally, compound 1 was analyzed for its capability in sensitizing tumor cells to standard chemotherapies. As HA 14-1 was established to sensitize various tumor cells to doxorubicin, compound 1 was tested in parallel with HA 14-1 for the potential synergism to doxorubicin in Jurkat cells. Briefly, the cytotoxicity of doxorubicin alone, compound 1 alone, or the combination of both to Jurkat cells were evaluated. […] This study established that compound 1 can function as a chemosensitizer in combination cancer therapy. The synergism of compound 1 was further supported by the dose-response potentiation of doxorubicin (FIG. 5).

[5] = Half-life under varying pH conditions; format: physicochemical; conditions: buffer
[6] = tested on: Jurkat cells (normal, over-expressing Bcl-2, or over-expressing Bcl-XL); conditions: Jurkat over-expressing Bcl-2 or Bcl-XL; from Doshi et al. J. Med. Chem. 2006; cited from earlier work
[7] = Table 3, mean of two independent experiments with triplicate in each, read-out: Ki ± SEM Bcl-w

T1 sequence (P10415 whole entry, species assumed): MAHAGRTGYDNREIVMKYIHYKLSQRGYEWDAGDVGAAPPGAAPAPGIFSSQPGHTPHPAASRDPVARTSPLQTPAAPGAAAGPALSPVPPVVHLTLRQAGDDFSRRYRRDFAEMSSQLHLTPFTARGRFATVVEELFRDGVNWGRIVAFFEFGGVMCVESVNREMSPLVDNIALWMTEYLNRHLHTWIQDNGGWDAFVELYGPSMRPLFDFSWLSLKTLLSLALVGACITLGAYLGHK

Row | SMILES | Ki (Bcl-2) [µM] | Ki (Bcl-XL; Table 1, read-out: Ki Bcl-XL) [µM] | Ki (Bcl-w; Table 1, read-out: Ki Bcl-w) [µM] | increase of GI50 after incubation (Jurkat cells [1]) [fold] | cytotoxicity (inhibition of cell growth) compared with HA 14-1 (Jurkat cells [1]; 24 hours treatment, FIG. 2) | decomposition by HPLC [2] | concentration inducing apoptosis (caspase-3/-7 activation) (caspase-3/-7) [µM] | concentration inducing non-apoptotic cell death (no activation of caspase-3/-7) (caspase-3/-7) [µM] | resistance induced by over-expression of Bcl-2 or Bcl-XL [3] | potentiation of doxorubicin (Jurkat cells [4]; 30 μM compound, FIG. 5) [fold] | synergism with doxorubicin (Jurkat cells [4]) | Ki (Bcl-XL; Table 3, mean of two independent experiments with triplicate in each, read-out: Ki ± SEM Bcl-XL) [µM] | Ki (Bcl-w; [7]) [µM] | loss of cytotoxicity after incubation (Jurkat cells [1]) [fold] | half-life ([5]; pH 6.0) [h] | half-life ([5]; pH 7.0) [h] | half-life ([5]; pH 8.0) [h] | resistance induced by over-expression of Bcl-2 or Bcl-XL [6]
1 | CCOC(=O)CC1C(C(=O)OCC)=C(N)Oc2ccc(Br)cc21 (stereo not drawn) [Compound 1, Ethyl-2-amino-6-bromo-4-(2-ethoxy-2-oxoethyl)-4H-chromene-3-carboxylate] | 858 | 390 | 686 | 1.2 | less cytotoxic than HA 14-1 | no decomposition was detected | 50 to 100 | > 100 | induced no resistance | 1.4 | able to synergize doxorubicin |  |  |  |  |  |  | 
2 | CCOC(=O)C1=C(N)Oc2ccc(Br)cc2C1C(C)(C#N)C(=O)OCC (stereo not drawn) [Compound 3, Ethyl-2-amino-6-bromo-4-(2-cyano-1-ethoxy-1-oxopropan-2-yl)-4H-chromene-3-carboxylate] |  |  |  |  |  |  |  |  | unable to induce any noticeable resistance |  |  | 55.4 ± 0.88 | 49.4 ± 1.76 | 2.5 | 2.75 |  |  | 
3 | CCOC(=O)C1=C(N)Oc2ccc(Br)cc2C1C(C#N)C(=O)OCC (stereo not drawn) [HA 14-1, reference compound] | 169 ± 18.9 | 58.9 ± 5.3 | 59.3 ± 5.3 | ~35 |  |  |  |  |  |  | able to synergize doxorubicin |  | 59.3 ± 5.32 | 10 | 2.09 | 1.86 | 1.22 | show no resistance

Reference: patent publication US8394794B2, “Therapeutic compounds” (Regents of The University of Minnesota, priority 2007, dated 2013)
